Measurements from patent US20230391727A1, “ANALOGUES OF PENTAMIDINE AND METHODS FOR TREATING INFECTIONS” (Auransa Inc., priority 2020, published 2023).
≈ marks a conversion by molar mass, not a printed value. Like-named read-outs stand apart in the source and are kept apart here.

Legend:
Assay type in all cases: cell-based
[1] = test system: Staphylococcus aureus ATCC 19636; experiment: MIC assay against gram positive and antibiotic-resistant S. aureus; conditions: Staphylococcus aureus, ATCC19636
Procedure: (§1) The MICs of vancomycin and linezolid were determined as quality controls and the MIC values of each strain met the acceptance criteria based on PDS historical reference data.
(§2) The direct colony suspension method was used to prepare inoculated broth. Isolated colonies were taken from an 18-24 h culture plate. Optical density measurements (OD620 nm) were used to estimate the bacterial density. The test article, compound 3, and reference control stock solutions were prepared in 100% DMSO as 50× stock solutions. The 50× stock solutions were diluted by 2-fold serial titrations with 100% DMSO for a total of 11 concentrations. A 4 μL aliquot of each dilution was added to 196 μL of cation-adjusted Mueller Hinton Broth II medium seeded with the organism in wells of a 96 well plate. The final vehicle concentration was two percent (2%) in all assay wells. The final bacterial count was 2 to 8×10^5 CFU/mL. The final compound 3 concentration range was 16 to 0.016 μg/mL. Each test substance dilution was evaluated in duplicate on one test occasion. Vehicle-control and reference controls were used as blank and positive controls, respectively. Plates were incubated at 35-37° C. for 18 h. The test plates were visually examined and each well was visually scored for growth or complete inhibition of growth. The MIC value was recorded.

[2] = test system: Staphylococcus aureus VRS-2 (VRSA); experiment: as above; conditions: Staphylococcus aureus, VRSA
Procedure: as §1, §2

[3] = test system: Staphylococcus aureus ATCC 33591 (MRSA); experiment: as above; conditions: Staphylococcus aureus
Procedure: as §1, §2

[4] = test system: Staphylococcus aureus BAA-1556 (MRSA); experiment: as above; conditions: Staphylococcus aureus
Procedure: as §1, §2

[5] = test system: Candida albicans 43001; experiment: Anti-fungal MIC assay
Procedure: (§3) The first round of testing included Candida parapsilosis, Candida krusei, Paecilomyces variotii, Candida albicans, Aspergillus fumigatus, and Blastomyces dermatitidis. […] The second round of testing included Candida parapsilosis, Candida krusei, Candida albicans, Candida auris, Candida glabrata, Candida guilliermondii, and Cryptococcus neoformans.
(§4) Stock solutions of the investigational agent were prepared at concentrations 100-times the highest concentration to be tested (6400 μg/ml) using dimethyl sulfoxide. Aliquots of the stock solutions were dispensed into polystyrene vials and stored at −20° C.
(§5) The synthetic medium RPMI-1640 (with glutamine, without bicarbonate, and with phenol red) was used. The RPMI was buffered to a pH of 7.0+0.1 at 25° C. with 0.165M MOPS (3-[N-morpholino] propanesulfonic acid). Sterile U-shaped 96-well cell culture plates were used to perform the MIC assays. Dilutions of the DMSO stocks were prepared in RPMI to achieve 2× concentrations. After the dilutions of the working 2× investigational antifungal solutions were prepared, 0.1 ml of each concentration was transferred into a pre-specified column of the U-shaped 96-well cell culture plate using sterile pipettes.
(§6) Fungal isolates were grown on Sabouraud dextrose agar (yeasts) or potato flake agar (filamentous fungi) and cells were collected after an appropriate period of growth for each species being evaluated (e.g., 48-72 hours for yeasts and 7 days for filamentous fungi). The fungi were suspended in sterile distilled water, and the densities of the fungal suspension were read using a spectrophotometer and adjusted to an appropriate optical density specific for each fungal species. The fungal suspension of each isolate was then diluted in RPMI. A sufficient volume of the test inoculum was prepared to directly inoculate 0.1 ml into each test well of the 96-well cell culture plate. Final inoculum ranges were dependent on the fungal species to be tested (e.g., 0.4×103 to 5×10^3 cells/ml for yeasts and dimorphic fungi, and 0.4×104 to 5×10^4 cells/ml for filamentous fungi). Each well of the 96-well cell culture plate containing the investigational antifungal compounds (0.1 ml volume) was inoculated on the day of the assay with 0.1 ml of the fungal suspension. Growth control wells contained 0.1 ml of fungal suspension and 0.1 ml of the growth medium without antifungal agents. The media control well contained 0.2 ml of the growth medium.
(§7) The microdilution trays were incubated at 35° C. without agitation. […] One positive comparator/control was used for yeast (fluconazole) and one was used for filamentous fungi (voriconazole).

[6] = test system: Cryptococcus neoformans CN3; experiment: Anti-fungal MIC assay
Procedure: as §3, §4, §5, §6, §7

[7] = test system: Candida parapsilosis CP1; experiment: Anti-fungal MIC assay
Procedure: as §3, §4, §5, §6, §7

[8] = test system: Candida glabrata CG3; experiment: Anti-fungal MIC assay; conditions: Nakaseomyces glabratus
Procedure: as §3, §4, §5, §6, §7

[9] = test system: Candida auris DI17-46; experiment: Anti-fungal MIC assay; conditions: Candidozyma auris
Procedure: as §3, §4, §5, §6, §7

[10] = test system: Candida krusei ATCC6258; experiment: Anti-fungal MIC assay; conditions: Pichia kudriavzevii, second round (Table 6)
Procedure: as §3, §4, §5, §6, §7

[11] = test system: Candida albicans CA6; experiment: Anti-fungal MIC assay
Procedure: as §3, §4, §5, §6, §7

[12] = test system: Cryptococcus neoformans USC 1597; experiment: Anti-fungal MIC assay
Procedure: as §3, §4, §5, §6, §7

[13] = test system: Candida albicans ATCC90028; experiment: Anti-fungal MIC assay
Procedure: as §3, §4, §5, §6, §7

[14] = test system: Candida auris DI17-47; experiment: Anti-fungal MIC assay; conditions: Candidozyma auris
Procedure: as §3, §4, §5, §6, §7

[15] = test system: Candida albicans SC5314; experiment: Anti-fungal MIC assay
Procedure: as §3, §4, §5, §6, §7

[16] = test system: Candida albicans CA5; experiment: Anti-fungal MIC assay
Procedure: as §3, §4, §5, §6, §7

[17] = test system: Paecilomyces variotii MYA-3630; experiment: Anti-fungal MIC assay
Procedure: as §3, §4, §5, §6, §7

[18] = test system: Candida guilliermondii Cgui1; experiment: Anti-fungal MIC assay; conditions: Meyerozyma guilliermondii
Procedure: as §3, §4, §5, §6, §7

[19] = test system: Candida albicans CA3; experiment: Anti-fungal MIC assay
Procedure: as §3, §4, §5, §6, §7

[20] = test system: Candida parapsilosis CP3; experiment: Anti-fungal MIC assay; conditions: Lodderomyces parapsilosis
Procedure: as §3, §4, §5, §6, §7

[21] = test system: Candida guilliermondii Cgui2; experiment: Anti-fungal MIC assay; conditions: Meyerozyma guilliermondii
Procedure: as §3, §4, §5, §6, §7

[22] = test system: Cryptococcus neoformans H99; experiment: Anti-fungal MIC assay
Procedure: as §3, §4, §5, §6, §7

[23] = test system: Candida glabrata 05-761; experiment: Anti-fungal MIC assay
Procedure: as §3, §4, §5, §6, §7

[24] = test system: Candida parapsilosis ATCC22019; experiment: Anti-fungal MIC assay; conditions: Lodderomyces parapsilosis
Procedure: as §3, §4, §5, §6, §7

[25] = test system: Candida glabrata 05-62; experiment: Anti-fungal MIC assay
Procedure: as §3, §4, §5, §6, §7

[26] = test system: Candida auris DI17-48; experiment: Anti-fungal MIC assay; conditions: Candidozyma auris
Procedure: as §3, §4, §5, §6, §7

[27] = test system: Candida guilliermondii Cgui3; experiment: Anti-fungal MIC assay; conditions: Meyerozyma guilliermondii
Procedure: as §3, §4, §5, §6, §7

[28] = test system: Candida parapsilosis CP2; experiment: Anti-fungal MIC assay; conditions: Lodderomyces parapsilosis
Procedure: as §3, §4, §5, §6, §7

[29] = read-out: MIC, 50% growth inhibition
[30] = read-out: MIC, 100% growth inhibition

CN[C@H](CC(C)C)C(=O)N[C@H]1C(=O)N[C@@H](CC(N)=O)C(=O)N[C@H]2C(=O)N[C@H]3C(=O)N[C@H](C(=O)N[C@H](C(=O)O)c4cc(O)cc(O)c4-c4cc3ccc4O)[C@H](O)c3ccc(c(Cl)c3)Oc3cc2cc(c3O[C@@H]2O[C@H](CO)[C@@H](O)[C@H](O)[C@H]2O[C@H]2C[C@](C)(N)[C@H](O)[C@H](C)O2)Oc2ccc(cc2Cl)[C@H]1O [Vancomycin]
MIC [1]: 0.5 µg/mL (≈ 0.345 µM) | MIC [2]: > 64 µg/mL | MIC [3]: 0.5 µg/mL (≈ 0.345 µM) | MIC [4]: 0.5 µg/mL (≈ 0.345 µM)

OC(Cn1cncn1)(Cn1cncn1)c1ccc(F)cc1F [Fluconazole, reference compound]
MIC [5, 29]: > 64 µg/mL | MIC [5, 30]: > 64 µg/mL | MIC [6, 29]: > 64 µg/mL | MIC [6, 30]: > 64 µg/mL | MIC [7, 29]: 0.5 µg/mL (≈ 1.63 µM) | MIC [7, 30]: 1 µg/mL (≈ 3.27 µM) | MIC [8, 29]: 0.5 µg/mL (≈ 1.63 µM) | MIC [8, 30]: 64 µg/mL (≈ 209 µM) | MIC ([9]; DI1746, read-out: MIC, 50% growth inhibition): > 64 µg/mL | MIC ([9]; DI1746, read-out: MIC, 100% growth inhibition): > 64 µg/mL | MIC ([10]; ATCC6258, C. krusei ATCC 6258, read-out: MIC, 50% growth inhibition): 16 µg/mL (≈ 52.2 µM) | MIC ([10]; ATCC6258, read-out: MIC, 100% growth inhibition, C. krusei ATCC 6258): 32 µg/mL (≈ 104 µM) | MIC [11, 29]: 0.25 µg/mL (≈ 0.816 µM) | MIC [11, 30]: > 64 µg/mL | MIC ([12]; USC1597, read-out: MIC, 50% growth inhibition): 4 µg/mL (≈ 13.1 µM) | MIC ([12]; USC1597, read-out: MIC, 100% growth inhibition): 8 µg/mL (≈ 26.1 µM) | MIC [13, 29]: ≤ 0.125 µg/mL | MIC [13, 30]: > 64 µg/mL | MIC ([14]; DI1747, read-out: MIC, 50% growth inhibition): > 64 µg/mL | MIC ([14]; DI1747, read-out: MIC, 100% growth inhibition): > 64 µg/mL | MIC [15, 29]: 0.25 µg/mL (≈ 0.816 µM) | MIC [15, 30]: > 64 µg/mL | MIC [16, 29]: 0.25 µg/mL (≈ 0.816 µM) | MIC [16, 30]: > 64 µg/mL | MIC ([17]; MYA3630, read-out: MIC, 50% growth inhibition): 16 µg/mL (≈ 52.2 µM) | MIC ([17]; MYA3630, read-out: MIC, 100% growth inhibition): 32 µg/mL (≈ 104 µM) | MIC [18, 29]: 1 µg/mL (≈ 3.27 µM) | MIC [18, 30]: 4 µg/mL (≈ 13.1 µM) | MIC [19, 29]: > 64 µg/mL | MIC [19, 30]: > 64 µg/mL | MIC [20, 29]: 1 µg/mL (≈ 3.27 µM) | MIC [20, 30]: 1 µg/mL (≈ 3.27 µM) | MIC [21, 29]: 2 µg/mL (≈ 6.53 µM) | MIC [21, 30]: 4 µg/mL (≈ 13.1 µM) | MIC [22, 29]: 16 µg/mL (≈ 52.2 µM) | MIC [22, 30]: 32 µg/mL (≈ 104 µM) | MIC ([23]; Nakaseomyces glabratus, 05761, read-out: MIC, 50% growth inhibition): 8 µg/mL (≈ 26.1 µM) | MIC ([23]; Nakaseomyces glabratus, 05761, read-out: MIC, 100% growth inhibition): 32 µg/mL (≈ 104 µM) | MIC ([24]; ATCC22019, C. parapsilosis ATCC 22019, second round (Table 6), read-out: MIC, 50% growth inhibition): 2 µg/mL (≈ 6.53 µM) | MIC ([24]; ATCC22019, Candida parapsilosis ATCC22019, first round (Table 5), read-out: MIC, 50% growth inhibition): 1 µg/mL (≈ 3.27 µM) | MIC ([24]; ATCC22019, read-out: MIC, 100% growth inhibition, C. parapsilosis ATCC 22019, second round (Table 6)): 2 µg/mL (≈ 6.53 µM) | MIC ([24]; ATCC22019, read-out: MIC, 100% growth inhibition, Candida parapsilosis ATCC22019, first round (Table 5)): 2 µg/mL (≈ 6.53 µM) | MIC ([25]; Nakaseomyces glabratus, 0562, read-out: MIC, 50% growth inhibition): > 64 µg/mL | MIC ([25]; Nakaseomyces glabratus, 0562, read-out: MIC, 100% growth inhibition): > 64 µg/mL | MIC ([26]; DI1748, read-out: MIC, 50% growth inhibition): 2 µg/mL (≈ 6.53 µM) | MIC ([26]; DI1748, read-out: MIC, 100% growth inhibition): 16 µg/mL (≈ 52.2 µM) | MIC [27, 29]: 2 µg/mL (≈ 6.53 µM) | MIC [27, 30]: 4 µg/mL (≈ 13.1 µM) | MIC [28, 29]: 0.5 µg/mL (≈ 1.63 µM) | MIC [28, 30]: 0.5 µg/mL (≈ 1.63 µM)
